Data as given in patent publication US12427114B2, “Orodispersible dosage unit containing an estetrol component” (ESTETRA SRL, priority 2015, dated 2025).

How the values were obtained:
[1] = biological target: T1, sex hormone binding globulin (SHBG) (Homo sapiens, UniProt P04278); settings: cited from earlier work
T1 sequence (P04278 30-402): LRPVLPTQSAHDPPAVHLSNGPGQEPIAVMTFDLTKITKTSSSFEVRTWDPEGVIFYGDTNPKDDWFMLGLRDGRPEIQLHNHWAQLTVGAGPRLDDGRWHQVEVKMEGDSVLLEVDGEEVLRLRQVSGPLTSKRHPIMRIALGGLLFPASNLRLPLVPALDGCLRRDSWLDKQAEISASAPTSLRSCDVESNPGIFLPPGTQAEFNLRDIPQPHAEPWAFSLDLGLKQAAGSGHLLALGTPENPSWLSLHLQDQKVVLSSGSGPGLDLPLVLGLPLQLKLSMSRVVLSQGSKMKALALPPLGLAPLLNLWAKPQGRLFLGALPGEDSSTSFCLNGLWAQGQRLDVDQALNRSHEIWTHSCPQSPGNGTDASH

[2] = Randomized, open-label, two-period, cross-over pharmacokinetic study, sublingual versus oral 10 mg estetrol tablet; assay type: in vivo, human; settings: 10 mg estetrol sublingual vs oral; healthy female volunteers
Method: A randomized, open-label, two-period, cross-over, pharmacokinetic study is conducted to compare sublingual bioavailability of 10 mg estetrol administered in one 80 mg tablet (having the same composition as the tablets described in Example 4, Formulation E) with oral availability of estetrol contained in a 83 mg tablet containing 10 mg estetrol. These tablets are administered sublingually and orally to healthy female volunteers under fasting conditions.
Ten healthy female subjects are selected on the basis of the following criteria: age of 45-65 years (inclusive), nonsmokers or past smokers (at least 6 months before dosing), body-mass index (BMI)=18.5 to 30 kg/m^2 (inclusive at the time of the screening).
At the start of the first and the second period of the study, between 07:00 am and 07:28 am, 5 subjects receive a single dose of the sublingual formulation of estetrol by administering one estetrol tablet (tablet weight 80 mg; 10 mg estetrol) and 5 subjects receive a single oral dose of the oral estetrol formulation by administering one estetrol tablet (tablet weight 83 mg; 10 mg estetrol), ingested together with 200 ml water. […]
The estetrol concentration in the collected blood samples is determined by means of HPLC/MS/MS. The concentrations of glucuronided estetrol (D-ring) in the urine samples is also determined with the help of HPLC/MS/MS.

DMBA mammary tumour = settings: extent and dose level similar to tamoxifen and to ovariectomy; cited from earlier work
estrogen receptors = settings: in vitro; cited from earlier work
[3] = test system: vagina, uterus, body weight, bone mass, bone strength, hot flushes, ovulation; settings: ovulation (inhibition), dose-dependent; cited from earlier work
[4] = test system: human breast cancer cells; settings: in vitro; cited from earlier work
[5] = humans; cited from earlier work
production of SHBG = settings: in vitro; cited from earlier work

Compound: C[C@]12CC[C@@H]3c4ccc(O)cc4CC[C@H]3[C@@H]1[C@@H](O)[C@@H](O)[C@@H]2O [estetrol, 1,3,5 (10)-estratrien-3,15α,16α, 17β-tetrol]
- Binding to SHBG [1]: does not bind
- Impact on a liver function parameter, sublingual compared with oral [2]: less impact on a liver function parameter
- Tumour development (DMBA mammary tumour): prevented tumour development
- Estrogen receptor binding selectivity (estrogen receptors): binds highly selective to the estrogen receptors with preference for the ERα form
- Estrogenic effects in rat models [3]: exhibited estrogenic effects
- Effect in the presence of 17β-estradiol [4]: anti-estrogenic effect
- Oral bioavailability [5]: high and dose-proportional
- Terminal elimination half-life [5]: about 28 hours
- Stimulation of the production of SHBG (production of SHBG): does not stimulate
